Experiment [1] deals with IFN-γ. Kind of experiment: IFN-γ Levels in Chronic Opisthorchiasis Patients (ProCon IFN-γ assay, 492 nm). Format: in vivo, human. As to conditions: Second Group: praziquantel only, two weeks after treatment. From the text:
Forty-five (45) individuals with chronic opisthorchiasis were split into two groups: a first group including twenty-five (25) individuals and a second group including twenty (20) individuals. The individuals of both groups received conventional praziquantel treatment, an anti-parasitic, or antihelminthic, drug which is used in the treatment of opisthorchiasis and is available under the trade name BILTHRICIDE™ from Bayer AG of Leverkusen, Germany. In addition to praziquantel, two capsules of TRANSFER FACTOR PLUS were administered to the individuals of the first group following praziquantel treatment, three times daily for seven days. The individuals of the second group were only treated with praziquantel.
Levels of various cytokines, including γ-interferon (IFN-γ), antibodies, and immune complexes were determined, by known processes, for each the individuals prior to therapy and two weeks following TRANSFER FACTOR PLUS therapy in the individuals of the […] was discontinued. The following TABLE 4 lists the collective measures of IFN-γ in both groups, as determined by use of the ProCon IFN-γ assay available from Protein Contour of St. Petersburg, Russia, and photometrically measured at a wavelength of 492 nm. TABLE 4 also includes a collective measure of the IFN-γ levels of fifteen (15) “normal” blood donors.

Experiment [2] relates to IFN-γ. Briefly: IFN-γ Levels in Chlamydia Patients (ProCon IFN-γ assay, 492 nm). Format: in vivo, human. The note with it: urogenital chlamydiosis patients, First Group: claritomycin, doxycyclin and ofloxacin in succession; after treatment. Here is the method:
Among other cytokine levels, levels of IFN-γ were determined for three groups, each including fifteen (15) individuals, and compared with IFN-γ levels of the aforementioned group of fifteen (15) “normal” blood donors. The individuals of a first group were treated with 500 mg of claritomycin twice daily for ten (10) to fourteen (14) days, 100 mg of doxycyclin once daily for ten (10) days, and 200 mg of ofloxacin twice daily for ten (10) days, with the drugs having been administered in succession. The individuals of the second group received 500 mg of claritomycin twice daily for ten (10) to fourteen (14) days and one capsule of TRANSFER FACTOR PLUS three times each day for ten (10) days, with treatment with the claritomycin and TRANSFER FACTOR PLUS beginning on the same day. In the third group, each individual was treated with 500 mg of claritomycin twice daily for ten (10) to fourteen (14) days and one capsule of TRANSFER FACTOR thrice daily for ten (10) days, with administration of the claritomycin and TRANSFER FACTOR PLUS having begun on the same day. […] The following TABLE 5 lists the collective measures of IFN-γ in all three groups, as determined by use of the ProCon IFN-γ assay available from Protein Contour and photometrically measured at a wavelength of 492 nm. […]

On to `O=C(C1CCCCC1)N1CC(=O)N2CCc3ccccc3C2C1` (centres unmarked) [praziquantel], for which, in the experiment with IFN-γ [1], the IFN-γ level is recorded as 51.4 ± 6.3. On to `CC[C@H]1OC(=O)[C@H](C)[C@@H](O[C@H]2C[C@@](C)(OC)[C@@H](O)[C@H](C)O2)[C@H](C)[C@@H](O[C@@H]2O[C@H](C)C[C@H](N(C)C)[C@H]2O)[C@](C)(OC)C[C@@H](C)C(=O)[C@H](C)[C@@H](O)[C@]1(C)O` [claritomycin], for which, in the experiment with IFN-γ [2], the IFN-γ level came to 31.4 ± 6.1.

(Values after patent publication US20050233967A1, “Compositions, systems, and methods for focusing a cell-mediated immune response” (priority 2002, published 2005).)
